{"source": "patent US4939177A", "about": "“Use of avarol for the control of AIDS and ARC” (Merz + Co. GmbH & Co., priority 1986, dated 1990)", "key": {"[1]": {"test_system": "DTH to oxazolone in NMRI mice", "test": "Contact allergy to oxazolone", "assay_type": "in vivo, mouse", "details": "30 mg/kg per os", "method": "Allergic contact dermatitis against oxazolone was produced according to the method of Asherson and Ptak (Immunol. 15: 405-416; 1968) as well as those of Bure and Degrand (Agents and Actions 9: 534; 1979). Male NMRI mice (20-22 g; 10/group) were sensitized with 100 μl of a 2% oxazolone in acetone solution onto the shaved abdomen (day 0). Animals were treated with avarol (i.p.) daily from day -1 to +2 or from day +6 to +8; control group was treated with deoxymethasone (Casella-Hoechst) as a standard per os at a daily dose of 30 mg/kg for the same period of time as for avarol. Seven days after sensitization 10 μl of a 3% oxazolane (this concentration was previously found to give more reproducible results than the lower 2% concentration) solution were topically applied onto the inner side of one ear, whereas the other ear received only acetone. […] Treated groups were compared with controls using the U-test."}, "herpes simplex virus": {"test_system": "herpes simplex virus", "details": "in vitro, cultures of herpes simplex virus; cited from earlier work"}, "[2]": {"test_system": "mouse leukemia cells L5178-Y", "details": "in vitro and in vivo; cited from earlier work"}, "[3]": {"test_system": "L5178y mouse lymphoma cells", "test": "L5178y cell growth", "assay_type": "cell-based", "details": "Mus musculus, L5178Y, absence of Avarol", "method": "mouse lymphoma cells were grown in roller tube cultures in Eagle's minimum essential medium, supplemented with 10% horse serum (Muller et al., Cancer Res. 39: 1102-1107; 1979 and Muller et al. Cancer Res. 45: 4822-4826; 1985). […] The cell growth was determined by cell count with a computer supported cell-counter (128-channel counter; Cytocomp, system Michaelis: BIOTRON-Medizinelektronik, Mainz; West Germany). The ED50 (±SD) was estimated by logit regression (L. Sachs, […], Springer-Verlag, Berlin 1984). The mathematical evaluation of the fractional inhibitory concentration indices (FIC indices) of Avarol/Avarone-DDC combinations was performed according to published equations and experimental conditions (Muller et al., Cancer Lett. 1: 127-132; 1976; and Phillips et al., Antimicrob. Agents Chemother. 9: 736-740, 1976). […] In this set of experiments, […] cells were incubated with Avarol in the absence or presence of the established SODase inhibitor DDC."}}}
{"smiles": "C[C@@H]1C[C@H]2[C@@H]3CCC4=CC(=O)C=C[C@]4(C)[C@@]3(F)[C@@H](O)C[C@]2(C)[C@H]1C(=O)CO", "note": "[Deoxymethasone]", "values": [{"measurement": "influence on DTH reaction to oxazolone, in words", "setting": "[1]; both schedules", "result": "significant immunosuppressive influence"}, {"measurement": "24 hours increase in ear thickness", "setting": "[1]; day +6 to +8, control 18.5±3.7", "result": "10.9 ± 6.1", "unit": "mg"}, {"measurement": "24 hours increase in ear thickness", "setting": "[1]; day -1 to +2, control 22.3±5.6", "result": "10.2 ± 6.0", "unit": "mg"}]}
{"smiles": "CC1=CCC[C@H]2[C@](C)(CC3=CC(=O)C=CC3=O)[C@@H](C)CC[C@]12C", "note": "[Avarone]", "values": [{"measurement": "virostatic action", "setting": "herpes simplex virus", "result": "certain virostatic action in vitro"}, {"measurement": "antileukemic action", "setting": "[2]", "result": "antileukemic action"}]}
{"smiles": "CCN(CC)C(=S)S", "note": "[DDC, diethyldithiocarbamate, reference compound]", "values": [{"measurement": "inhibition at 1.46 µM", "setting": "[3]; DDC 1.46 μM", "result": 26, "unit": "%"}, {"measurement": "inhibition at 1.71 µM", "setting": "[3]; DDC 1.71 μM", "result": 38, "unit": "%"}]}
